For six molecules, MIC results are on record in US11208387B2, “Macrocyclic broad spectrum antibiotics” (Genentech, Inc., priority 2019, dated 2021).

Assay in all cases: Serum MIC, broth micro-dilution
Holding throughout (format): cell-based
(Dilution methods test growth across graded concentrations, often in twofold steps.)

Experiment [1] has as its system Acinetobacter baumannii ATCC 17978. Conditions: Acinetobacter baumannii. The procedure, abridged:
(§1)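 Half mouse serum, half cation-adjusted MH II broth (v/v) served as test medium; bacteria at final OD600 0.0005 were exposed to serial 2-fold compound dilutions for 22 h, 35° C, and the MIC was determined per CLSI M07-A8.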

In experiment [2] the test system is Pseudomonas aeruginosa PA01. Conditions: Pseudomonas aeruginosa, read-out: P. aeruginosa 01 Serum MIC. In outline:
as §1

In experiment [3] the test system is Escherichia coli strain ATCC 25922. Conditions: Escherichia coli, read-out: E. coli 25922 Serum MIC. The procedure, abridged: as §1
The test system of experiment [4] is Klebsiella pneumoniae ATCC 700603. Conditions: Klebsiella pneumoniae, read-out: K pneumoniae 700603 Serum MIC. The procedure, abridged: as §1
Setting [5] is: ATCC17978, 50% v/v mouse serum in Mueller Hinton II cation adjusted Broth, 35° C., 22 hours, Table 4, read-out: A. baumanii 17978 Serum MIC.
Where [6] appears, read: ATCC17978, 50% v/v mouse serum in Mueller Hinton II cation adjusted Broth, 35° C., 22 hours, Table 5, read-out: Acinetobacter baumanii 17978 Serum MIC.
The mark [7] stands for this setting: PA01, 50% v/v mouse serum in Mueller Hinton II cation adjusted Broth, 35° C., 22 hours, Table 4.
[8] abbreviates: ATCC25922, 50% v/v mouse serum in Mueller Hinton II cation adjusted Broth, 35° C., 22 hours, Table 4.
Setting [9] is: ATCC700603, 50% v/v mouse serum in Mueller Hinton II cation adjusted Broth, 35° C., 22 hours, Table 4.

Converted amounts (≈) assume the structure as drawn. Like-named read-outs stand apart in the source and are kept apart here.

In the case of `C[C@@H]1NC(=O)[C@@H](N(C)C(=O)[C@H](CCN)NC(=O)c2cnn(-c3ccc(C4(C)CC4)cc3)c(=O)c2)c2cc(OC[C@H](O)CN)c(O)c(c2)-c2cc(ccc2OC[C@H](O)CN)C[C@@H](C(=O)O)NC1=O` [Example 29, (8S,11S,14S)-18-hydroxy-11-methyl-14-[methyl-[(2S)-4-amino-2-[[1-[4-(1-methylcyclopropyl)-phenyl]-6-oxo-pyridazine-4-carbonyl]amino]-butanoyl]amino]-10,13-dioxo-3,17-bis[(2R)-3-amino-2-hydroxy-propoxy]-9,12-diazatricyclo-[13.3.1.12,6]icosa-1(18),2(20),3,5,15(19), 16-hexaene-8-carboxylic acid], the minimal inhibitory concentration (MIC) (in general, the least concentration at which growth counts as inhibited) in experiment [1] (setting [5]) was 32 µM (≈ 29.7 µg/mL); in experiment [1] (setting [6]), 32 µM (≈ 29.7 µg/mL); in experiment [2] (setting [7]), 64 µM (≈ 59.4 µg/mL); in experiment [3] (setting [8]) it was 2.7 µM (≈ 2.51 µg/mL); in experiment [4] (setting [9]), 1.8 µM (≈ 1.67 µg/mL).

As for `Cc1c(C#N)c(-c2ccc(C(C)(C)C)cc2)nc(N)c1C(=O)N[C@@H](CNS(N)(=O)=O)C(=O)N(C)[C@@H]1C(=O)N[C@@H](C)C(=O)N[C@H](C(=O)O)Cc2ccc(OC[C@H](O)CN)c(c2)-c2cc1cc(OC[C@H](O)CN)c2O` [Example 68, (8S,11S,14S)-14-[[(2S)-2-[[2-amino-6-(4-tert-butylphenyl)-5-cyano-4-methyl-pyridine-3-carbonyl]-amino]-3-(sulfamoyl-amino)propanoyl]-methyl-amino]-3,17-bis[(2R)-3-amino-2-hydroxy-propoxy]-18-hydroxy-11-methyl-10,13-dioxo-9,12-diazatricyclo-[13.3.1.12,6]icosa-1(19),2(20),3,5,15,17-hexaene-8-carboxylic acid], the MIC in experiment [1] (setting [5]) was determined as 16 µM (≈ 16.5 µg/mL); in experiment [1] (setting [6]) it was 16 µM (≈ 16.5 µg/mL); in experiment [2] (setting [7]), 6 µM (≈ 6.19 µg/mL); in experiment [3] (setting [8]) it was 1.5 µM (≈ 1.55 µg/mL); in experiment [4] (setting [9]), 1 µM (≈ 1.03 µg/mL).

Take `C[C@@H]1NC(=O)[C@@H](N(C)C(=O)[C@H](CNS(N)(=O)=O)NC(=O)c2c(Cl)cc(-c3ccc(C(C)(C)C)cc3)nc2N)c2cc(OC[C@H](O)CN)c(O)c(c2)-c2cc(ccc2OC[C@H](O)CN)C[C@@H](C(=O)O)NC1=O` [Example 40, (8S,11S,14S)-14-[[(2S)-2-[[2-amino-6-(4-tert-butylphenyl)-4-chloro-pyridine-3-carbonyl]amino]-3-(sulfamoylamino)-propanoyl]-methyl-amino]-3,17-bis[(2R)-3-amino-2-hydroxy-propoxy]-18-hydroxy-11-methyl-10,13-dioxo-9,12-diazatri-cyclo[13.3.1.12,6]icosa-1(18),2(20),3,5,15(19), 16-hexaene-8-carboxylic acid]: the MIC in experiment [1] (setting [5]) worked out at 16 µM (≈ 16.4 µg/mL); in experiment [1] (setting [6]) it was 16 µM (≈ 16.4 µg/mL); in experiment [2] (setting [7]) it was 8 µM (≈ 8.22 µg/mL); in experiment [3] (setting [8]), 0.75 µM (≈ 0.771 µg/mL); in experiment [4] (setting [9]), 0.5 µM (≈ 0.514 µg/mL).

In the case of `Cc1nc(-c2cc3c(cc2O)C(C)(C)CC3)nc(N)c1C(=O)N[C@@H](CNS(N)(=O)=O)C(=O)N(C)[C@@H]1C(=O)N[C@@H](C)C(=O)N[C@H](C(=O)O)Cc2ccc(OC[C@H](O)CN)c(c2)-c2cc1cc(OC[C@H](O)CN)c2O` [Example 57, (8S,11S,14S)-18-hydroxy-11-methyl-14-[methyl-[(2S)-2-[[4-amino-2-(6-hydroxy-1,1-dimethyl-indan-5-yl)-6-methyl-pyrimidine-5-carbonyl]amino]-3-(sulfamoylamino)-propanoyl]amino]-10,13-dioxo-3,17-bis[(2R)-3-amino-2-hydroxy-propoxy]-9,12-diazatricyclo-[13.3.1.12,6]icosa-1(18),2(20),3,5,15(19), 16-hexaene-8-carboxylic acid], the MIC in experiment [1] (setting [5]) was found to be 16 µM (≈ 16.6 µg/mL); in experiment [1] (setting [6]) it was 16 µM (≈ 16.6 µg/mL); in experiment [2] (setting [7]), 8 µM (≈ 8.29 µg/mL); in experiment [3] (setting [8]), 0.75 µM (≈ 0.777 µg/mL); in experiment [4] (setting [9]), 1 µM (≈ 1.04 µg/mL).

Consider `Cc1nc(-c2ccc(OC(C)C)cc2)ncc1C(=O)N[C@@H](CNS(N)(=O)=O)C(=O)N(C)[C@@H]1C(=O)N[C@@H](C)C(=O)N[C@H](C(=O)O)Cc2ccc(OC[C@H](O)CN)c(c2)-c2cc1cc(OC[C@H](O)CN)c2O` [Example 14, (8S,11S,14S)-18-hydroxy-11-methyl-14-[methyl-[(2S)-2-[[2-(4-isopropoxy-phenyl)-4-methyl-pyrimidine-5-carbonyl]amino]-3-(sulfamoylamino)-propanoyl]amino]-10,13-dioxo-3,17-bis[(2R)-3-amino-2-hydroxy-propoxy]-9,12-diazatricyclo-[13.3.1.12,6]icosa-1(18),2(20),3,5,15(19), 16-hexaene-8-carboxylic acid], for which the minimal inhibitory concentration (MIC) came to 32 µM (≈ 31.8 µg/mL) in experiment [1] (ATCC17978, 22 h, read-out: A. baumanii 17978 Serum MIC); 32 µM (≈ 31.8 µg/mL) in experiment [1] (ATCC17978, 22 h, read-out: Acinetobacter baumanii 17978 Serum MIC); 48 µM (≈ 47.8 µg/mL) in experiment [2] (PA01, 22 h); 1.5 µM (≈ 1.49 µg/mL) in experiment [3] (ATCC25922, 22 h); 2 µM (≈ 1.99 µg/mL) in experiment [4] (ATCC700603, 22 h).

On to `Cc1nc(-c2c(O)cc3c(c2O)CCC3(C)C)nc(N)c1C(=O)N[C@@H](CNS(N)(=O)=O)C(=O)N(C)[C@@H]1C(=O)N[C@@H](C)C(=O)N[C@H](C(=O)O)Cc2ccc(OC[C@H](O)CN)c(c2)-c2cc1cc(OC[C@H](O)CN)c2O` [Example 52, (8S,11S,14S)-18-hydroxy-11-methyl-14-[methyl-[(2S)-2-[[4-amino-2-(4,6-dihydroxy-1,1-dimethyl-indan-5-yl)-6-methyl-pyrimidine-5-carbonyl]amino]-3-(sulfamoylamino)-propanoyl]amino]-10,13-dioxo-3,17-bis[(2R)-3-amino-2-hydroxy-propoxy]-9,12-diazatricyclo-[13.3.1.12,6]icosa-1(18),2(20),3,5,15(19), 16-hexaene-8-carboxylic acid], for which the MIC in experiment [1] (setting [5]) worked out at 16 µM (≈ 16.8 µg/mL); in experiment [1] (setting [6]) it was 16 µM (≈ 16.8 µg/mL); in experiment [2] (setting [7]), 8 µM (≈ 8.42 µg/mL); in experiment [3] (setting [8]) it was 0.5 µM (≈ 0.526 µg/mL); in experiment [4] (setting [9]), 1 µM (≈ 1.05 µg/mL).
